# Where two headings read alike, the source gives them in different places.
# Experiments:
# [1] = system: Salmonella typhimurium TA97a; test: Ames antimutagenicity assay (preincubation); details: for inhibition at 50 µM / inhibition at 100 µM / inhibition at 250 µM / inhibition at 500 µM: Salmonella enterica, TYPHIMURIUM;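 as to all read-outs here: compound and mutagen preincubated together 30 min at 37 °C before adding bacteria, then plated on minimal glucose agar for 48 h and His+ revertant colonies counted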
# Method: (§1) In the preincubation experiment, test compounds and mutagen, each having a volume of 0.1 mL of varying concentrations, were preincubated at 37°C for 30 min and then 0.1 mL of 1 × 10^7 CFU/mL density of the bacterial culture was added, followed by the addition of 2.5 mL of top agar at 45°C (containing 0.5% NaCl and 0.6% agar) supplemented with 0.5 mM histidine-biotin. […] The combined solutions were vortexed and poured onto minimal glucose plates (40% glucose solution and Vogel Bonner medium). The plates were incubated at 37°C for 48 h and the numbers of histidine-independent revertants colonies were scored.
# (§2) Survival of the bacteria was routinely monitored for each experiment. Parallel controls were run with compounds alone at all concentrations to test the possible toxicity. The concentrations of the test samples for investigating the antimutagenicity were 50, 100, 200, and 500 μM. […] All the test samples and mutagens were dissolved in DMSO (final conc., 0.01%). […] Plates were set up in triplicate for each concentration and the entire experiment was repeated three times. Inhibition of mutagenicity was expressed as percentage decrease of reverse mutation and calculated as (1) Percent inhibition=[(a−b)/(a−c)]×100, where a = number of histidine revertants induced by mutagen, b = number of histidine revertants induced by mutagen in the presence of test compound, and c = number of revertants induced in negative control.
# [2] = system: Salmonella typhimurium TA102; test: Ames antimutagenicity assay (preincubation); details: for inhibition at 50 µM / inhibition at 100 µM / inhibition at 250 µM / inhibition at 500 µM: Salmonella enterica, TYPHIMURIUM;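 as to all read-outs here: compound and mutagen preincubated 30 min at 37 °C before adding bacteria, His+ revertant colonies counted after 48 h at 37 °C, inhibition relative to mutagen-alone minus negative-control revertants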
# Method: as §1, §2
smiles,measurement,setting,value
O=C1O[C@H]2[C@@H]3OC(=O)c4cc(O)c(O)c(O)c4-c4c(O)c(O)c5oc(=O)c6c(c(O)c(O)c7oc(=O)c4c5c76)-c4c(cc(O)c(O)c4O)C(=O)OC[C@H]3OC(O)[C@@H]2OC(=O)c2cc(O)c(O)c(O)c2-c2c1cc(O)c(O)c2O (mixture of isomers) [Punicalagin],inhibition at 50 µM,"[1]; read-out: % inhibition of mutagenicity, TA 97a, 50 μM + 2AF, S9",15.7%
same,inhibition at 50 µM,"[1]; read-out: % inhibition of mutagenicity, TA 97a, 50 μM + BP, S9",15.1%
same,inhibition at 50 µM,"[1]; read-out: % inhibition of mutagenicity, TA 97a, 50 μM + MMS, no S9",10.2%
same,inhibition at 50 µM,"[1]; read-out: % inhibition of mutagenicity, TA 97a, 50 μM + NaN3, no S9",10.2%
same,inhibition at 100 µM,"[1]; read-out: % inhibition of mutagenicity, TA 97a, 100 μM + 2AF, S9",37.1%
same,inhibition at 100 µM,"[1]; read-out: % inhibition of mutagenicity, TA 97a, 100 μM + BP, S9",34.3%
same,inhibition at 100 µM,"[1]; read-out: % inhibition of mutagenicity, TA 97a, 100 μM + MMS, no S9",19.9%
same,inhibition at 100 µM,"[1]; read-out: % inhibition of mutagenicity, TA 97a, 100 μM + NaN3, no S9",34.2%
same,inhibition at 250 µM,"[1]; read-out: % inhibition of mutagenicity, TA 97a, 250 μM + BP, S9",53.5%
same,inhibition at 250 µM,"[1]; read-out: % inhibition of mutagenicity, TA 97a, 250 μM + MMS, no S9",42.4%
same,inhibition at 250 µM,"[1]; read-out: % inhibition of mutagenicity, TA 97a, 250 μM + NaN3, no S9",54.9%
same,inhibition at 500 µM,"[1]; read-out: % inhibition of mutagenicity, TA 97a, 500 μM + 2AF, S9",78.5%
same,inhibition at 500 µM,"[1]; read-out: % inhibition of mutagenicity, TA 97a, 500 μM + BP, S9",76.7%
same,inhibition at 500 µM,"[1]; read-out: % inhibition of mutagenicity, TA 97a, 500 μM + MMS, no S9",72%
same,inhibition at 500 µM,"[1]; read-out: % inhibition of mutagenicity, TA 97a, 500 μM + NaN3, no S9",74.4%
same,Number of His+ revertants colonies/plate,"[1]; TA 97a, 50 μM + 2AF, S9",304.7 ± 19.8 colonies/plate
same,Number of His+ revertants colonies/plate,"[1]; TA 97a, 50 μM + BP, S9",645.3 ± 28.7 colonies/plate
same,Number of His+ revertants colonies/plate,"[1]; TA 97a, 50 μM + MMS, no S9",418.3 ± 11.7 colonies/plate
same,Number of His+ revertants colonies/plate,"[1]; TA 97a, 50 μM + NaN3, no S9",244.3 ± 6.7 colonies/plate
same,Number of His+ revertants colonies/plate,"[1]; TA 97a, 100 μM + 2AF, S9",270.3 ± 10.1 colonies/plate
same,Number of His+ revertants colonies/plate,"[1]; TA 97a, 100 μM + BP, S9",538.3 ± 28.9 colonies/plate
same,Number of His+ revertants colonies/plate,"[1]; TA 97a, 100 μM + MMS, no S9",390.7 ± 10.2 colonies/plate
same,Number of His+ revertants colonies/plate,"[1]; TA 97a, 100 μM + NaN3, no S9",221.0 ± 7.1 colonies/plate
same,Number of His+ revertants colonies/plate,"[1]; TA 97a, 250 μM + BP, S9",431.0 ± 18.4 colonies/plate
same,Number of His+ revertants colonies/plate,"[1]; TA 97a, 250 μM + MMS, no S9",326.0 ± 7.8 colonies/plate
same,Number of His+ revertants colonies/plate,"[1]; TA 97a, 250 μM + NaN3, no S9",202.3 ± 8.7 colonies/plate
same,Number of His+ revertants colonies/plate,"[1]; TA 97a, 500 μM + 2AF, S9",220.0 ± 9.3 colonies/plate
same,Number of His+ revertants colonies/plate,"[1]; TA 97a, 500 μM + BP, S9",316.0 ± 17.6 colonies/plate
same,Number of His+ revertants colonies/plate,"[1]; TA 97a, 500 μM + MMS, no S9",251.0 ± 9.0 colonies/plate
same,% inhibition of mutagenicity,"[1]; TA 97a, 500 μM + MMS, no S9, 500 µM",72.1%
same,Number of His+ revertants colonies/plate,"[1]; TA 97a, 500 μM + MMS, no S9, listed as PC",251 colonies/plate
same,Number of His+ revertants colonies/plate,"[1]; TA 97a, 500 μM + NaN3, no S9",195.0 ± 10.8 colonies/plate
same,inhibition at 50 µM,"[2]; read-out: % inhibition of mutagenicity, TA 102, 50 μM + 2AF, S9",38.7%
same,inhibition at 50 µM,"[2]; read-out: % inhibition of mutagenicity, TA 102, 50 μM + BP, S9",15.8%
same,inhibition at 50 µM,"[2]; read-out: % inhibition of mutagenicity, TA 102, 50 μM + MMS, no S9",17.5%
same,inhibition at 50 µM,"[2]; read-out: % inhibition of mutagenicity, TA 102, 50 μM + NaN3, no S9",18%
same,inhibition at 100 µM,"[2]; read-out: % inhibition of mutagenicity, TA 102, 100 μM + 2AF, S9",54.8%
same,inhibition at 100 µM,"[2]; read-out: % inhibition of mutagenicity, TA 102, 100 μM + BP, S9",28%
same,inhibition at 100 µM,"[2]; read-out: % inhibition of mutagenicity, TA 102, 100 μM + MMS, no S9",30.8%
same,inhibition at 100 µM,"[2]; read-out: % inhibition of mutagenicity, TA 102, 100 μM + NaN3, no S9",17.6%
same,inhibition at 250 µM,"[2]; read-out: % inhibition of mutagenicity, TA 102, 250 μM + BP, S9",58.6%
same,inhibition at 250 µM,"[2]; read-out: % inhibition of mutagenicity, TA 102, 250 μM + MMS, no S9",50.8%
same,inhibition at 250 µM,"[2]; read-out: % inhibition of mutagenicity, TA 102, 250 μM + NaN3, no S9",42.2%
same,inhibition at 500 µM,"[2]; read-out: % inhibition of mutagenicity, TA 102, 500 μM + 2AF, S9",81.6%
same,inhibition at 500 µM,"[2]; read-out: % inhibition of mutagenicity, TA 102, 500 μM + BP, S9",76.2%
same,inhibition at 500 µM,"[2]; read-out: % inhibition of mutagenicity, TA 102, 500 μM + MMS, no S9",74.1%
same,inhibition at 500 µM,"[2]; read-out: % inhibition of mutagenicity, TA 102, 500 μM + NaN3, no S9",59.8%
same,Number of His+ revertants colonies/plate,"[2]; TA 102, 50 μM + 2AF, S9",1028.0 ± 21.8 colonies/plate
same,Number of His+ revertants colonies/plate,"[2]; TA 102, 50 μM + BP, S9",635.0 ± 23.0 colonies/plate
same,Number of His+ revertants colonies/plate,"[2]; TA 102, 50 μM + MMS, no S9",1072.0 ± 10.7 colonies/plate
same,Number of His+ revertants colonies/plate,"[2]; TA 102, 50 μM + NaN3, no S9",346.3 ± 23.5 colonies/plate
same,Number of His+ revertants colonies/plate,"[2]; TA 102, 100 μM + 2AF, S9",854.0 ± 31.6 colonies/plate
same,Number of His+ revertants colonies/plate,"[2]; TA 102, 100 μM + BP, S9",595.0 ± 28.8 colonies/plate
same,Number of His+ revertants colonies/plate,"[2]; TA 102, 100 μM + MMS, no S9",942.0 ± 16.2 colonies/plate
same,Number of His+ revertants colonies/plate,"[2]; TA 102, 100 μM + NaN3, no S9",341.0 ± 19.1 colonies/plate
same,Number of His+ revertants colonies/plate,"[2]; TA 102, 250 μM + BP, S9",496.0 ± 17.4 colonies/plate
same,Number of His+ revertants colonies/plate,"[2]; TA 102, 250 μM + MMS, no S9",738.0 ± 14.8 colonies/plate
same,Number of His+ revertants colonies/plate,"[2]; TA 102, 250 μM + NaN3, no S9",310.7 ± 16.0 colonies/plate
same,Number of His+ revertants colonies/plate,"[2]; TA 102, 500 μM + 2AF, S9",563.0 ± 29.4 colonies/plate
same,Number of His+ revertants colonies/plate,"[2]; TA 102, 500 μM + BP, S9",438.0 ± 19.5 colonies/plate
same,Number of His+ revertants colonies/plate,"[2]; TA 102, 500 μM + MMS, no S9",509.0 ± 19.7 colonies/plate

# — PMC4052943 (BioMed Research International, 2014)
